Assay results from US20030147950A1, “Modified release tamsulosin tablets” (priority 2001, published 2003).

Experiment: Solubility of tamsulosin HCl in aqueous media
Format: physicochemical
Details: up to 10 mg
Excerpt: SGF represents a standard stomach condition. SIF represents a standard intestinal condition. FeSSIF is tailored to better represent the fed state while FaSSIF is tailored to better represent the fasting state. Note that not only are the pH different, but equally important, the osmolarity are also different.

In the case of `CCOc1ccccc1OCCNC(C)Cc1ccc(OC)c(S(N)(=O)=O)c1` (stereo not shown) [tamsulosin HCI, 5-[2-[[2-(2-ethoxyphenoxy)ethyl]amino]propyl]-2-methoxy-benzenesulfonamide], the “volume of any aqueous media needed to dissolve until 10 mg” value is reported as “not more than 500 ml”.
